In patent US11273163B2, “Antiviral treatment” (priority 2020, dated 2022):

Test system: SARS-CoV-2 B.1.1.7
Experiment: microbe, parasite or virus in culture
Format: cell-based

CN1CCCC(n2nc(Cc3ccc(Cl)cc3)c3ccccc3c2=O)CC1 (stereo not shown) [Azelastine, 4-[(4-chlorophenyl)methyl]-2-(1-methylazepan-4-yl)phthalazin-1-one]
inhibition of infection: over 90%
